Experimental data published in ChEMBL document CHEMBL4419178, “Yap1 inhibitors that target the interaction of yap1 with oct4” (2018).
Activity calls are given as the source filed them.

How the values were obtained:
[1] = tested on: NCI-H1650; test: Inhibition of self-renewal capacity in cisplatin insensitive stem-like side-population cells of human NCI-H1650 cells assessed as reduction in number of spheres at 2 uM incubated for 5 days after 7 days cisplatin exposure by sphere formation assay; assay type: functional, cell-based
[2] = target: Transcriptional coactivator YAP1 (Homo sapiens) (UniProt P46937); test: Inhibition of YAP1 in human NCI-H1650 cells assessed as suppression of HK2 mRNA expression at 5 to 10 uM incubated for 72 hrs by RT-PCR method; assay type: cell-based
Chain of Transcriptional coactivator YAP1 (Homo sapiens) (P46937 whole entry): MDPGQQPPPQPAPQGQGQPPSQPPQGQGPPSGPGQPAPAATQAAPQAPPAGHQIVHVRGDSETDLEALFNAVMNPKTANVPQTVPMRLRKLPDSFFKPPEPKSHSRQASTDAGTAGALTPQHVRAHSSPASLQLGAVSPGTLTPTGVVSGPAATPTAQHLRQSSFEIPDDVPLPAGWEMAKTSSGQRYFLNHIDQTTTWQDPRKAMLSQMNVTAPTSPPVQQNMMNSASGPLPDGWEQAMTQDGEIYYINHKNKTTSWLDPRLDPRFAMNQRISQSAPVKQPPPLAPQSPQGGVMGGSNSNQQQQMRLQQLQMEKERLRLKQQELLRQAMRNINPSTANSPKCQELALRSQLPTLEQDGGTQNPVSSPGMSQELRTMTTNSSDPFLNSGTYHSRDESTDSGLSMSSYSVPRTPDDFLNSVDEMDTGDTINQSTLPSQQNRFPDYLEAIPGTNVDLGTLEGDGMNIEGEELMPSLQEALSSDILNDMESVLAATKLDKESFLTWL

[3] = target: Transcriptional coactivator YAP1 (Homo sapiens) (UniProt P46937); test: Inhibition of YAP1 in human NCI-H1650 cells assessed as suppression of PDK2 mRNA expression at 5 to 10 uM incubated for 72 hrs by RT-PCR method; assay type: cell-based
[4] = target: Transcriptional coactivator YAP1 (Homo sapiens) (UniProt P46937); test: Inhibition of YAP1 in human NCI-H1703 cells assessed as suppression of HK2 mRNA expression at 5 to 10 uM incubated for 72 hrs by RT-PCR method; assay type: cell-based
[5] = target: Transcriptional coactivator YAP1 (Homo sapiens) (UniProt P46937); test: Inhibition of YAP1 in human NCI-H1703 cells assessed as suppression of PDK2 mRNA expression at 5 to 10 uM incubated for 72 hrs by RT-PCR method; assay type: cell-based
[6] = target: Transcriptional coactivator YAP1 (Homo sapiens) (UniProt P46937); test: Inhibition of YAP1 in human NCI-H146 cells assessed as suppression of HK2 mRNA expression at 5 to 10 uM incubated for 72 hrs by RT-PCR method; assay type: cell-based
[7] = target: Transcriptional coactivator YAP1 (Homo sapiens) (UniProt P46937); test: Inhibition of YAP1 in human NCI-H146 cells assessed as suppression of PDK2 mRNA expression at 5 to 10 uM incubated for 72 hrs by RT-PCR method; assay type: cell-based
[8] = target: Transcriptional coactivator YAP1 (Homo sapiens) (UniProt P46937); test: Inhibition of YAP1 in human NCI-H1650 cells assessed as suppression of PD-L1 mRNA expression at 5 to 10 uM incubated for 72 hrs by RT-PCR method; assay type: cell-based
[9] = target: Transcriptional coactivator YAP1 (Homo sapiens) (UniProt P46937); test: Inhibition of YAP1 in human NCI-H1703 cells assessed as suppression of PD-L1 mRNA expression at 5 to 10 uM incubated for 72 hrs by RT-PCR method; assay type: cell-based
[10] = target: Transcriptional coactivator YAP1 (Homo sapiens) (UniProt P46937); test: Inhibition of YAP1 in human NCI-H1650 cells assessed as reduction in Sox2 protein expression at 5 uM by Western blot analysis; assay type: cell-based
[11] = target: Transcriptional coactivator YAP1 (Homo sapiens) (UniProt P46937); test: Inhibition of YAP1 in human A549 cells assessed as reduction in Sox2 protein expression at 5 uM by Western blot analysis; assay type: cell-based
[12] = target: Transcriptional coactivator YAP1 (Homo sapiens) (UniProt P46937); test: Inhibition of YAP1 in human A549 cells assessed as suppression of CCL2 level by cytokine array assay; assay type: cell-based
[13] = target: Transcriptional coactivator YAP1 (Homo sapiens) (UniProt P46937); test: Inhibition of YAP1 in human A549 cells assessed as suppression of CXCL1 level by cytokine array assay; assay type: cell-based
[14] = target: Transcriptional coactivator YAP1 (Homo sapiens) (UniProt P46937); test: Inhibition of YAP1 in human A549 cells assessed as suppression of CXCL12 level by cytokine array assay; assay type: cell-based
[15] = target: Transcriptional coactivator YAP1 (Homo sapiens) (UniProt P46937); test: Inhibition of YAP1 in human A549 cells assessed as suppression of CD40L level by cytokine array assay; assay type: cell-based
[16] = target: Transcriptional coactivator YAP1 (Homo sapiens) (UniProt P46937); test: Inhibition of YAP1 in human A549 cells assessed as suppression of ICAM1 level by cytokine array assay; assay type: cell-based
[17] = target: Transcriptional coactivator YAP1 (Homo sapiens) (UniProt P46937); test: Inhibition of YAP1 in human A549 cells assessed as suppression of IL1alpha level by cytokine array assay; assay type: cell-based
[18] = target: Transcriptional coactivator YAP1 (Homo sapiens) (UniProt P46937); test: Inhibition of YAP1 in human A549 cells assessed as suppression of IL6 level by cytokine array assay; assay type: cell-based
[19] = target: Transcriptional coactivator YAP1 (Homo sapiens) (UniProt P46937); test: Inhibition of YAP1 in human A549 cells assessed as suppression of IL8 level by cytokine array assay; assay type: cell-based
[20] = target: Transcriptional coactivator YAP1 (Homo sapiens) (UniProt P46937); test: Inhibition of YAP1 in human A549 cells assessed as suppression of IL13 level by cytokine array assay; assay type: cell-based
[21] = target: Transcriptional coactivator YAP1 (Homo sapiens) (UniProt P46937); test: Inhibition of YAP1 in human A549 cells assessed as suppression of IL18 level by cytokine array assay; assay type: cell-based
[22] = target: Transcriptional coactivator YAP1 (Homo sapiens) (UniProt P46937); test: Inhibition of YAP1 in human A549 cells assessed as suppression of IL32-alpha level by cytokine array assay; assay type: cell-based
[23] = target: Transcriptional coactivator YAP1 (Homo sapiens) (UniProt P46937); test: Inhibition of YAP1 in human A549 cells assessed as suppression of MIF level by cytokine array assay; assay type: cell-based
[24] = target: Transcriptional coactivator YAP1 (Homo sapiens) (UniProt P46937); test: Inhibition of YAP1 in human A549 cells assessed as suppression of Serpine-E1 level by cytokine array assay; assay type: cell-based
[25] = target: Transcriptional coactivator YAP1 (Homo sapiens) (UniProt P46937); test: Inhibition of YAP1 in human A549 cells assessed as suppression of CCL2 level in presence of cancer associated fibroblasts by cytokine array assay; assay type: cell-based
[26] = target: Transcriptional coactivator YAP1 (Homo sapiens) (UniProt P46937); test: Inhibition of YAP1 in human A549 cells assessed as suppression of CXCL12 level in presence of cancer associated fibroblasts by cytokine array assay; assay type: cell-based
[27] = target: Transcriptional coactivator YAP1 (Homo sapiens) (UniProt P46937); test: Inhibition of YAP1 in human A549 cells assessed as suppression of ICAM1 level in presence of cancer associated fibroblasts by cytokine array assay; assay type: cell-based
[28] = target: Transcriptional coactivator YAP1 (Homo sapiens) (UniProt P46937); test: Inhibition of YAP1 in human A549 cells assessed as suppression of IL6 level in presence of cancer associated fibroblasts by cytokine array assay; assay type: cell-based
[29] = target: Transcriptional coactivator YAP1 (Homo sapiens) (UniProt P46937); test: Inhibition of YAP1 in human A549 cells assessed as suppression of IL8 level in presence of cancer associated fibroblasts by cytokine array assay; assay type: cell-based
[30] = target: Transcriptional coactivator YAP1 (Homo sapiens) (UniProt P46937); test: Inhibition of YAP1 in human A549 cells assessed as suppression of MIF level in presence of cancer associated fibroblasts by cytokine array assay; assay type: cell-based
[31] = target: Transcriptional coactivator YAP1 (Homo sapiens) (UniProt P46937); test: Inhibition of YAP1 in human A549 cells assessed as suppression of Serpine-E1 level in presence of cancer associated fibroblasts by cytokine array assay; assay type: cell-based

Measured: inhibition

COC(=O)[C@H](Cc1ccc(OCc2ccccc2)cc1)NC(=O)CC1CCN(C(=O)CCc2ccc(Cl)c(Cl)c2)CC1
active: [1] | [2] | [3] | [4] | [5] | [6] | [7] | [8] | [9]

COC(=O)[C@H](Cc1ccc(OCc2ccccc2)cc1)NC(=O)CC1CCN(C(=O)CCc2ccc(C#N)cc2)CC1
active: [10] | [11] | [12] | [13] | [14] | [15] | [16] | [17] | [18] | [19] | [20] | [21] | [22] | [23] | [24] | [25] | [26] | [27] | [28] | [29] | [30] | [31]
